Source: publication PMC9865890, “N-Derivatives of (Z)-Methyl 3-(4-Oxo-2-thioxothiazolidin-5-ylidene)methyl)-1H-indole-2-carboxylates as Antimicrobial Agents—In Silico and In Vitro Evaluation” (Pharmaceuticals, 2023)
Converted amounts (≈) assume the structure as drawn. Where two headings read alike, the source gives them in different places.

Legend:
[1] = system: Penicillium verrucosum var. cyclopium (food isolate); test: Antifungal bioassay (MIC/MFC); assay type: cell-based
Description: For the antifungal bioassays, six fungi were used: Aspergillus niger (ATCC 6275), Aspergillus fumigatus (ATCC 1022), Aspergillus versicolor (ATCC 11730), Penicillium funiculosum (ATCC 36839), Trichoderma viride (IAM 5061), and Penicillium verrucosum var. cyclopium (food isolate). The organisms were obtained from the Mycological Laboratory, Department of Plant Physiology, Institute for Biological Research “Siniša Stankovic”, Belgrade, Serbia. All experiments were performed in duplicate.

[2] = system: Listeria monocytogenes (NCTC 7973); test: Antibacterial microdilution (MIC/MBC); assay type: cell-based; conditions: Listeria monocytogenes, NCTC7973, L.m. (L. monocytogenes); for MIC: read-out: MIC
Description: (§1) The synthesized compounds (Table 1) were evaluated for their antibacterial activity against a panel of eight species using a microdilution method with ampicillin and streptomycin as reference drugs. […] The order of activity can be presented as: 8 > 11 > 2 > 1 > 12 > 3 > 17 > 7 > 5 > 13 > 14 > 16 > 9 > 4 = 6 > 15 > 10. […] Cloacae. […] The most sensitive bacteria appeared to be En. cloacae, while E. coli was the most resistant one, followed by M. flavus.
(§2) The following Gram-negative bacteria: Escherichia coli (ATCC 35210), Enterobacter cloacae (clinical isolate), Salmonella typhimurium (ATCC 13311), as well as Gram-positive bacteria: Listeria monocytogenes (NCTC 7973), Bacillus cereus (clinical isolate), and Staphylococcus aureus (ATCC 6538) were used. The organisms were obtained from the Mycological Laboratory, Department of Plant Physiology, Institute for Biological Research “Siniša Stankovic”, Belgrade, Serbia. The minimum inhibitory (MIC) and minimum bactericidal (MBC) concentrations were determined by the modified microdilution method, as previously reported.

[3] = system: Enterobacter cloacae (clinical isolate); test: Antibacterial microdilution (MIC/MBC); assay type: cell-based; conditions: Enterobacter cloacae, En.cl (En. cloacae); for MIC: read-out: MIC
Description: as §1, §2

[4] = system: Staphylococcus aureus (ATCC 6538); test: Antibacterial microdilution (MIC/MBC); assay type: cell-based; conditions: Staphylococcus aureus, ATCC6538, S.a. (S. aureus); for MIC: read-out: MIC
Description: as §1, §2

[5] = system: Bacillus cereus (clinical isolate); test: Antibacterial microdilution (MIC/MBC); assay type: cell-based; conditions: Bacillus cereus, B.c. (B. cereus); for MIC: read-out: MIC
Description: as §1, §2

P. aeruginosa = test: Antibacterial microdilution (MIC/MBC); assay type: cell-based; conditions: Pseudomonas aeruginosa, P.a. (P. aeruginosa); for MIC: read-out: MIC
Description: as §1, §2

[6] = system: Escherichia coli (ATCC 35210); test: Antibacterial microdilution (MIC/MBC); assay type: cell-based; conditions: Escherichia coli, ATCC35210, E. coli; for MIC: read-out: MIC
Description: as §1, §2

[7] = system: Salmonella typhimurium (ATCC 13311); test: Antibacterial microdilution (MIC/MBC); assay type: cell-based; conditions: Salmonella enterica, S.t. (S. typhimurium); for MIC: read-out: MIC
Description: as §1, §2

M. flavus = test: Antibacterial microdilution (MIC/MBC); assay type: cell-based; conditions: Micrococcus flavus; M.f. (M. flavus)
Description: as §1, §2

[8] = system: Aspergillus fumigatus (ATCC 1022); test: Antifungal bioassay (MIC/MFC); assay type: cell-based; conditions: ATCC1022, A.f. (A. fumigatus)
Description: (§3) For the antifungal bioassays, six fungi were used: […] The organisms were obtained from the Mycological Laboratory, Department of Plant Physiology, Institute for Biological Research “Siniša Stankovic”, Belgrade, Serbia. All experiments were performed in duplicate.

[9] = system: Aspergillus versicolor (ATCC 11730); test: Antifungal bioassay (MIC/MFC); assay type: cell-based; conditions: ATCC11730, A.v. (A. versicolor)
Description: as §3

A. ochraceus = test: Antifungal bioassay (MIC/MFC); assay type: cell-based; conditions: A.o. (A. ochraceus)
Description: as §3

[10] = system: Trichoderma viride (IAM 5061); test: Antifungal bioassay (MIC/MFC); assay type: cell-based; conditions: T.v. (T. viride)
Description: as §3

[11] = system: Aspergillus niger (ATCC 6275); test: Antifungal bioassay (MIC/MFC); assay type: cell-based; conditions: ATCC6275, A.n. (A. niger)
Description: as §3

[12] = system: Penicillium funiculosum (ATCC 36839); test: Antifungal bioassay (MIC/MFC); assay type: cell-based; conditions: Talaromyces funiculosus, ATCC36839; P.f. (P. funiculosum)
Description: as §3

P. ochrochloron = test: Antifungal bioassay (MIC/MFC); assay type: cell-based; conditions: for MIC: P.o. (P. ochrochloron; text: P. ochramensis); for MFC: P.o. (P. ochrochloron)
Description: as §3

[13] = Aspergillus ochraceus, read-out: MIC
[14] = Trichoderma viride, IAM5061, read-out: MIC
[15] = Penicillium ochrochloron, read-out: MIC

Q: Which results are given for `COC(=O)c1[nH]c2ccc(F)cc2c1/C=C1\SC(=S)N(C)C1=O` [Compound 15, (Z)-methyl 5-fluoro-3-((3-methyl-4-oxo-2-thioxothiazolidin-5-ylidene)methyl)-1H-indole-2-carboxylate]?
A: MFC [1]: 15 ± 3 µg/mL (≈ 42.8 µM); MIC [1]: 8 ± 0.6 µg/mL (≈ 22.8 µM); MBC [2]: 60 ± 6 µg/mL (≈ 171 µM); MIC [2]: 45 ± 3 µg/mL (≈ 128 µM); MBC [3]: 60 ± 6 µg/mL (≈ 171 µM); MIC [3]: 30 ± 10 µg/mL (≈ 85.6 µM); MBC [4]: 30 ± 10 µg/mL (≈ 85.6 µM); MIC [4]: 22 ± 5 µg/mL (≈ 62.8 µM); MBC [5]: 60 ± 6 µg/mL (≈ 171 µM); MIC [5]: 30 ± 10 µg/mL (≈ 85.6 µM); MBC (P. aeruginosa): 60 ± 6 µg/mL (≈ 171 µM); MIC (P. aeruginosa): 30 ± 10 µg/mL (≈ 85.6 µM); MBC [6]: 60 ± 6 µg/mL (≈ 171 µM); MIC [6]: 45 ± 3 µg/mL (≈ 128 µM); MBC [7]: 60 ± 6 µg/mL (≈ 171 µM); MIC [7]: 45 ± 3 µg/mL (≈ 128 µM); MBC (M. flavus): 60 ± 6 µg/mL (≈ 171 µM); MIC (M. flavus): 45 ± 3 µg/mL (≈ 128 µM); melting point: 234 to 244 °C; MFC [8]: 30 ± 10 µg/mL (≈ 85.6 µM); MIC [8]: 15 ± 3 µg/mL (≈ 42.8 µM); MFC [9]: 15 ± 3 µg/mL (≈ 42.8 µM); MIC [9]: 8 ± 0.6 µg/mL (≈ 22.8 µM); MFC (A. ochraceus; Aspergillus ochraceus): 15 ± 3 µg/mL (≈ 42.8 µM); MIC (A. ochraceus; [13]): 8 ± 0.6 µg/mL (≈ 22.8 µM); MIC [10]: 8 ± 0.6 µg/mL (≈ 22.8 µM); MFC ([10]; Trichoderma viride, IAM5061): 15 ± 3 µg/mL (≈ 42.8 µM); MIC [10, 14]: 8 µg/mL (≈ 22.8 µM); MFC [11]: 15 ± 3 µg/mL (≈ 42.8 µM); MIC [11]: 8 ± 0.6 µg/mL (≈ 22.8 µM); MFC [12]: 15 ± 3 µg/mL (≈ 42.8 µM); MIC [12]: 8 ± 0.6 µg/mL (≈ 22.8 µM); MIC (P. ochrochloron): 8 ± 0.6 µg/mL (≈ 22.8 µM); MFC (P. ochrochloron; Penicillium ochrochloron): 15 ± 3 µg/mL (≈ 42.8 µM); MIC (P. ochrochloron; [15]): 8 µg/mL (≈ 22.8 µM)

Q: For `COC(=O)c1[nH]c2ccc(F)cc2c1/C=C1\SC(=S)N(c2ccc(O)cc2)C1=O` [Compound 10, (Z)-methyl 5-fluoro-3-((3-(4-hydroxyphenyl)-4-oxo-2-thioxothiazolidin-5-ylidene)methyl)-1H-indole-2-carboxylate], which MFC [1] is on record?
A: 30 ± 10 µg/mL (≈ 70 µM)

Q: What about the MIC [1] of the same compound?
A: 15 ± 3 µg/mL (≈ 35 µM)

Q: What about the MBC [2] of the same compound?
A: 60 ± 6 µg/mL (≈ 140 µM)

Q: And the MIC [2]?
A: 30 ± 10 µg/mL (≈ 70 µM)

Q: What about the MBC [3] of the same compound?
A: 60 ± 6 µg/mL (≈ 140 µM)

Q: What about the MIC [3] of the same compound?
A: 30 ± 10 µg/mL (≈ 70 µM)

Q: And the MBC [4]?
A: 60 ± 6 µg/mL (≈ 140 µM)

Q: What about the MIC [4] of the same compound?
A: 30 ± 10 µg/mL (≈ 70 µM)

Q: And the MBC [5]?
A: 60 ± 6 µg/mL (≈ 140 µM)

Q: What about the MIC [5] of the same compound?
A: 30 ± 10 µg/mL (≈ 70 µM)

Q: What about the MBC (P. aeruginosa) of the same compound?
A: 60 ± 6 µg/mL (≈ 140 µM)

Q: And the MIC (P. aeruginosa)?
A: 30 ± 10 µg/mL (≈ 70 µM)

Q: What about the MBC [6] of the same compound?
A: 60 ± 6 µg/mL (≈ 140 µM)

Q: And the MIC [6]?
A: 30 ± 10 µg/mL (≈ 70 µM)

Q: What about the MBC [7] of the same compound?
A: 60 ± 6 µg/mL (≈ 140 µM)

Q: What about the MIC [7] of the same compound?
A: 45 ± 3 µg/mL (≈ 105 µM)

Q: And the MBC (M. flavus)?
A: 60 ± 6 µg/mL (≈ 140 µM)

Q: What about the MIC (M. flavus) of the same compound?
A: 45 ± 3 µg/mL (≈ 105 µM)

Q: What about the melting point of the same compound?
A: 267 to 268 °C

Q: What about the MFC [8] of the same compound?
A: 120 ± 40 µg/mL (≈ 280 µM)

Q: What about the MIC [8] of the same compound?
A: 60 ± 6 µg/mL (≈ 140 µM)

Q: And the MFC [9]?
A: 15 ± 3 µg/mL (≈ 35 µM)

Q: And the MIC [9]?
A: 8 ± 0.6 µg/mL (≈ 18.7 µM)

Q: And the MIC (A. ochraceus)?
A: 4 ± 1 µg/mL (≈ 9.34 µM)

Q: What about the MFC (A. ochraceus; Aspergillus ochraceus) of the same compound?
A: 8 ± 0.6 µg/mL (≈ 18.7 µM)

Q: What about the MIC (A. ochraceus; [13]) of the same compound?
A: 4 µg/mL (≈ 9.34 µM)

Q: And the MIC [10]?
A: 4 ± 1 µg/mL (≈ 9.34 µM)

Q: And the MFC ([10]; Trichoderma viride, IAM5061)?
A: 8 ± 0.6 µg/mL (≈ 18.7 µM)

Q: And the MIC [10, 14]?
A: 4 µg/mL (≈ 9.34 µM)

Q: And the MFC [11]?
A: 15 ± 3 µg/mL (≈ 35 µM)

Q: And the MIC [11]?
A: 8 ± 0.6 µg/mL (≈ 18.7 µM)

Q: And the MFC [12]?
A: 15 ± 3 µg/mL (≈ 35 µM)

Q: And the MIC [12]?
A: 8 ± 0.6 µg/mL (≈ 18.7 µM)

Q: What about the MIC (P. ochrochloron) of the same compound?
A: 8 ± 0.6 µg/mL (≈ 18.7 µM)

Q: What about the MFC (P. ochrochloron; Penicillium ochrochloron) of the same compound?
A: 15 ± 3 µg/mL (≈ 35 µM)

Q: What about the MIC (P. ochrochloron; [15]) of the same compound?
A: 8 µg/mL (≈ 18.7 µM)
